Results reported in patent publication US4456601A, “3-Chloro-pregnane derivatives and a process for the preparation thereof” (Richter Gedeon Vegyeszeti Gyar Rt., priority 1981, dated 1984).
Read-outs that look alike come from different tables or passages of the source.

Key:
cotton granuloma [1] = assay: Local cotton granuloma test (local antiphlogistic effect); format: in vivo
From the text: (§1) Local antiphlogistic effect
(b) Local cotton granuloma test [B. Silvestrini: Arzneim. Forsch. 19, 30 (1969)]

[2] = system: carrageenin-induced planter oedema; assay: Inhibition of carrageenin-induced planter oedema (systemic antiphlogistic effect); format: in vivo
From the text: (§2) Systemic antiphlogistic effect
(a) Inhibition of carrageenin-induced planter oedema [Winter et al.: J. Pharm. Exp. Therap. […]]

granuloma pouch [3] = assay: Granuloma pouch test according to Selye (systemic antiphlogistic effect); format: in vivo
From the text: as §2
(b) Granuloma pouch test according to Selye [J. Selye: Recent Progr. Horm. Res. 8, 117 (1953)]

granuloma pouch [4] = assay: Local pouch test according to Selye (local antiphlogistic effect); format: in vivo
From the text: as §1
(a) Local pouch test according to Selye [Bianchetti et al.: Arzneim. Forsch. 27, 2096 (1977)]

[5] = system: ear inflammation provoked by croton oil; assay: Inhibition of ear inflammation provoked by croton oil (local antiphlogistic effect); format: in vivo
From the text: as §1
(c) Inhibition of ear inflammation provoked by croton oil [Tonelli et al.: Endocrinology 77, 625 (1965)]

cotton granuloma [6] = assay: Cotton granuloma test (systemic antiphlogistic effect); format: in vivo
From the text: as §2
(c) Cotton granuloma test [C. A. Winter et al: J. Pharm. Exp. Therap. 141, 369 (1963)]

[7] = target: T1, rat liver glucocorticoid receptors (Rattus norvegicus, UniProt P06536); assay: Affinity to rat liver glucocorticoid receptors (method of Baxter et al.); format: binding
T1 construct: from tissue; host or cells: rat liver
T1 sequence (P06536 1-795): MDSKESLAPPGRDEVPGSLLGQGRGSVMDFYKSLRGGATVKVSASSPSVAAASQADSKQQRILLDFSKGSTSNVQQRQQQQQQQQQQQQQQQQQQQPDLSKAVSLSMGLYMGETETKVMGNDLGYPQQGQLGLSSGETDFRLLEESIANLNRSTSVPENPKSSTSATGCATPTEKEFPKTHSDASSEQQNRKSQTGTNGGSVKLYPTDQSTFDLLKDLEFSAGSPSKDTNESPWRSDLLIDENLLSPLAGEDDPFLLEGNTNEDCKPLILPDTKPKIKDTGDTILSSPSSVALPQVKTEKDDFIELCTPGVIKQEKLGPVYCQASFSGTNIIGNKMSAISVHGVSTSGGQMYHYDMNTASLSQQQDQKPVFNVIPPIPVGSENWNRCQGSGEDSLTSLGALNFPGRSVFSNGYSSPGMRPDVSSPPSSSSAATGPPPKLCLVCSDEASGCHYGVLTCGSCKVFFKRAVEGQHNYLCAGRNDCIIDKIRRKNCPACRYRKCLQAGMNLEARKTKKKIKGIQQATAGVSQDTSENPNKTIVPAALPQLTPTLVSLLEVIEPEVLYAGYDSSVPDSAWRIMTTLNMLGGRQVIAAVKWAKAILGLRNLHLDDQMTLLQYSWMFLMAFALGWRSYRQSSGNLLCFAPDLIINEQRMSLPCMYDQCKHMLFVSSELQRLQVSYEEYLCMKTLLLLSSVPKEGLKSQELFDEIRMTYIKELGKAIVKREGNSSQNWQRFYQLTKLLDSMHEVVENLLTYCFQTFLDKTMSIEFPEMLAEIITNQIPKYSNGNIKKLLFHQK
From the text: A. Munck and K. Leung: "Receptors and Mechanism of Action of Steroid Hormones", Ed.

thymus weight [8] = assay: Thymus involution (reduction of thymus weight) in chickens; format: in vivo
Experimental: (§3) It is known that glucocorticoids cause thymus involution [O. Greengard, R. Machovich: "Hydrocortisone Regulation of Thymidine Kinase in Thymus Involution and Hematopoietic Tissues", Biochem. Biophys. Acta 286, 382-388 (1972)], 50% reduction of thymus weight was observed on chickens with a dose of 0.01 mg/100 g and on rats with a dose of 0.001 mg/100 g for both TCA and 3-chloro-TCA.

thymus weight [9] = assay: Thymus involution (reduction of thymus weight) in rats; format: in vivo
Experimental: as §3

[10] = target: T1, rat liver glucocorticoid receptors; settings: on the basis of literature data (Munck and Leung); read-out: apparent dissociation constant; cited from earlier work
[11] = rat liver glucocorticoid receptors, read-out: apparent dissociation constant

| Kd [7, 11] [nM] | SMILES | Inhibition % (cotton granuloma [1]; 0.033 mg/cotton) [%] | Inhibition % (cotton granuloma [1]; 0.10 mg/cotton) [%] | Inhibition % ([2]; 2 mg/kg p.o.) [%] | Inhibition % ([2]; 6 mg/kg p.o.) [%] | Inhibition % (granuloma pouch [3]; 0.5 mg/kg s.c.) [%] | Inhibition % (granuloma pouch [3]; 1.5 mg/kg s.c.) [%] | Inhibition % (granuloma pouch [4]; 0.033 mg/pouch) [%] | Inhibition % (granuloma pouch [4]; 0.10 mg/pouch) [%] | Inhibition % ([5]; 0.02 mg/ml) [%] | Inhibition % ([5]; 0.10 mg/ml) [%] | Inhibition % (cotton granuloma [6]; 0.5 mg/kg s.c.) [%] | Inhibition % (cotton granuloma [6]; 1.5 mg/kg s.c.) [%] | dose giving 50% reduction of thymus weight (thymus weight [8]) [mg/100 g] | dose giving 50% reduction of thymus weight (thymus weight [9]) [mg/100 g] | also measured |
| --- | --- | --- | --- | --- | --- | --- | --- | --- | --- | --- | --- | --- | --- | --- | --- | --- |
| – | CC(=O)OCC(=O)[C@@]12OC(C)(C)O[C@@H]1C[C@H]1[C@@H]3CC=C4C=C(Cl)C=C[C@]4(C)[C@@]3(F)[C@@H](O)C[C@@]12C [3-Chloro-TCA-21-acetate, 3-chloro-9α-fluoro-11β,16α,17α,21-tetrahydroxy-pregna-1,3,5-triene-20-one-16,17-acetonide-21-acetate] | 52.4 | 35.3 | 8.9 | 9.6 | 56.6 | 73.3 | 12.4 | 26.3 | 10.0 | 17.8 | 33.0 | 91.0 | – | – | – |
| 60 | CC1(C)O[C@@H]2C[C@H]3[C@@H]4CC(Br)=C5C=C(Cl)C=C[C@]5(C)[C@@]4(F)[C@@H](O)C[C@]3(C)[C@]2(C(=O)CO)O1 [3-chloro-6-bromo-TCA, 3-chloro-6-bromo-9α-fluoro-11β,16α,17α,21-tetrahydroxy-pregna-1,3,5-triene-20-one-16,17-acetonide] | – | – | – | – | – | – | – | – | – | – | – | – | – | – | – |
| 30 | CC1(C)O[C@@H]2C[C@H]3[C@@H]4CC=C5C=C(Cl)C=C[C@]5(C)[C@@]4(F)[C@@H](O)C[C@]3(C)[C@]2(C(=O)CO)O1 [Example 3-Chloro-TCA, 3-chloro-9α-fluoro-11β,16α,17α,21-tetrahydroxy-pregna-1,3,5-triene-20-one-16,17-acetonide] | 24.1 | 51.4 | 30.2 | 38.7 | 90.8 | 90.1 | 26.0 | 32.3 | 30.0 | 52.9 | 22.0 | 26.0 | 0.01 | 0.001 | – |
| 25 | CC1(C)O[C@@H]2C[C@H]3[C@@H]4CC(F)=C5C=C(Cl)C=C[C@]5(C)[C@@]4(F)[C@@H](O)C[C@]3(C)[C@]2(C(=O)CO)O1 [Example 3-chloro-FCA, 3-chloro-6,9α-difluoro-11β,16α,17α,21-tetrahydroxy-pregna-1,3,5-triene-20-one-16,17-acetonide] | – | – | – | – | – | – | – | – | – | – | – | – | – | – | – |
| – | CC1(C)O[C@@H]2C[C@H]3[C@@H]4CCC5=CC(=O)C=C[C@]5(C)[C@@]4(F)[C@@H](O)C[C@]3(C)[C@]2(C(=O)CO)O1 [TCA, 9α-fluoro-11β,16α,17α,21-tetrahydroxy-pregna-1,4-diene-3,20-dione-16,17-acetonide, reference compound] | – | – | – | – | – | – | – | – | – | – | – | – | 0.01 | 0.001 | Kd [10]: 10 nM |
| – | CC1(C)O[C@@H]2C[C@H]3[C@@H]4C[C@H](F)C5=CC(=O)C=C[C@]5(C)[C@@]4(F)[C@@H](O)C[C@]3(C)[C@]2(C(=O)CO)O1 [fluocinolon-acetonide, 6α,9α-difluoro-11β,16α,17α,21-tetrahydro-pregna-1,4-diene-3,20-dione-16,17-acetonide, reference compound] | – | – | – | – | – | – | – | – | – | – | – | – | – | – | Kd [7]: 15 nM |
